Experimental data taken from the supplement of paper PMC10307832.

Tests used:
Assay in all cases: relative viability (nuclei count vs DMSO), 5 days (fraction); higher = more cells survive
[1] = compound: CC(C)C[C@H](NC(=O)[C@H](CCc1ccccc1)NC(=O)CN1CCOCC1)C(=O)N[C@@H](Cc1ccccc1)C(=O)N[C@@H](CC(C)C)C(=O)[C@@]1(C)CO1 [Carfilzomib] + CC(C)C[C@H](NC(=O)[C@H](Cc1ccccc1)NC(=O)c1cnccn1)B(O)O [Bortezomib] (partner 0.002 µM)
How it was run: (§1)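 After 5 days of treatment, lung cancer cells in 1536-well plates were fixed and stained in a single step (final 0.05% Triton X-100, 1% formaldehyde, 1 ug/ml Hoechst) and their nuclei counted on 4× images. Treatment had been applied by pin tool the day after seeding as one drug alone or as a fixed anchor-drug dose with five library-drug doses (not always all listed) in √10 steps. Relative viability is the nuclei count of treated wells divided by that of vehicle wells, and values are medians of duplicate plates.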

[2] = compound: CC(C)C[C@H](NC(=O)[C@H](CCc1ccccc1)NC(=O)CN1CCOCC1)C(=O)N[C@@H](Cc1ccccc1)C(=O)N[C@@H](CC(C)C)C(=O)[C@@]1(C)CO1 [Carfilzomib] + Cc1cc(Nc2cc(N3CCN(C)CC3)nc(Sc3ccc(NC(=O)C4CC4)cc3)n2)n[nH]1 [Tozasertib] (partner 0.1 µM)
How it was run: as §1

[3] = compound: O=C(c1cc(Cc2n[nH]c(=O)c3ccccc23)ccc1F)N1CCN(C(=O)C2CC2)CC1 [Olaparib] + CC(C)C[C@H](NC(=O)[C@H](Cc1ccccc1)NC(=O)c1cnccn1)B(O)O [Bortezomib] (partner 0.002 µM)
How it was run: as §1

[4] = compound: C[C@@H](Oc1cc(-c2cnn(C3CCNCC3)c2)cnc1N)c1c(Cl)ccc(F)c1Cl [Crizotinib] + Cc1cc(Nc2cc(N3CCN(C)CC3)nc(Sc3ccc(NC(=O)C4CC4)cc3)n2)n[nH]1 [Tozasertib] (partner 0.1 µM)
How it was run: as §1

Row | Cell Line | relative viability ([1]; first compound 0.001 µM) | relative viability ([1]; first compound 0.003162 µM) | relative viability ([1]; first compound 0.01 µM) | relative viability ([1]; first compound 0.03162 µM) | relative viability ([1]; first compound 0.1 µM) | relative viability ([2]; first compound 0.001 µM) | relative viability ([2]; first compound 0.003162 µM) | relative viability ([2]; first compound 0.01 µM) | relative viability ([2]; first compound 0.03162 µM) | relative viability ([2]; first compound 0.1 µM) | relative viability ([3]; first compound 0.08 µM) | relative viability ([3]; first compound 0.253 µM) | relative viability ([3]; first compound 2.53 µM) | relative viability ([3]; first compound 8 µM) | relative viability ([4]; first compound 0.01 µM) | relative viability ([4]; first compound 0.03162 µM) | relative viability ([4]; first compound 0.1 µM) | relative viability ([4]; first compound 1 µM) | relative viability ([4]; first compound 0.3162 µM)
1 | NCI-H1734 | 0.848 | 1.1 | 0.484 | 0.147 | 0.146 | 0.275 | 0.289 | 0.266 | 0.153 | 0.0994 | 1.06 | 0.835 | 0.91 | 0.614 | 0.247 | 0.27 | 0.253 | 0.257 | –
2 | NCI-H1755 | 0.929 | 1.02 | 0.685 | 0.282 | 0.221 | 0.612 | 0.505 | 0.571 | 0.609 | 0.269 | 1.03 | 0.92 | 0.921 | 0.893 | 0.614 | 0.563 | 0.617 | 0.549 | 0.467
3 | NCI-H1915 | 0.906 | 0.849 | 1.03 | 0.142 | 0.0581 | 0.422 | 0.458 | 0.465 | 0.229 | 0.0764 | 0.957 | 0.758 | 0.792 | 0.645 | 0.49 | 0.463 | 0.439 | 0.382 | –
4 | NCI-H1975 | 0.255 | 0.266 | 0.137 | 0.122 | 0.13 | – | 0.766 | 0.371 | 0.0617 | 0.0846 | 0.424 | 0.364 | 0.403 | 0.319 | 0.644 | 0.705 | 0.782 | 0.746 | 0.705
5 | NCI-H1993 | 0.912 | 1.18 | 1.1 | 0.453 | 0.425 | 0.563 | 0.571 | 0.59 | 0.597 | 0.423 | 1.06 | 1.16 | 1.06 | 1.18 | 0.558 | 0.538 | 0.552 | 0.588 | 0.588
6 | NCI-H2009 | 1.11 | 1.26 | 0.78 | 0.122 | 0.0487 | 0.781 | 0.871 | 0.723 | 0.748 | 0.0938 | 1.06 | 0.953 | 0.914 | 0.638 | 0.746 | 0.712 | 0.731 | 0.665 | 0.678
7 | NCI-H2023 | 0.951 | 1.07 | 1.01 | 0.184 | 0.0639 | 0.433 | 0.399 | 0.352 | 0.285 | 0.0853 | 1.13 | 0.884 | 0.931 | 0.675 | 0.356 | 0.284 | 0.293 | 0.271 | 0.241
8 | NCI-H2085 | 1.03 | 0.923 | 0.773 | 0.451 | 0.313 | 0.825 | 0.828 | 0.786 | 0.269 | 0.385 | 1.25 | 0.92 | 0.981 | 0.808 | 0.763 | 0.801 | 0.775 | 0.884 | –
9 | NCI-H2087 | 0.803 | 0.793 | 0.202 | 0.0909 | 0.101 | 0.264 | 0.236 | 0.239 | 0.0397 | 0.0474 | 0.96 | 0.753 | 0.842 | 0.66 | 0.254 | 0.213 | 0.254 | 0.274 | –
10 | NCI-H2126 | 1.11 | 1.12 | 1.1 | 0.945 | 0.554 | 0.904 | 0.926 | 0.936 | 0.777 | 0.408 | 1.22 | 0.994 | 1.07 | 1.08 | 0.721 | 0.813 | 0.819 | 0.808 | 0.8
11 | NCI-H2228 | 0.94 | 0.54 | 0.257 | 0.0941 | 0.156 | 0.3 | 0.27 | 0.289 | 0.096 | 0.103 | 1.02 | 0.821 | 1.02 | 0.661 | 0.237 | 0.229 | 0.172 | 0.182 | 0.209
12 | NCI-H2347 | 0.611 | 0.89 | 0.698 | 0.361 | 0.268 | 0.54 | – | 0.619 | 0.493 | 0.151 | 1.28 | 0.715 | 0.974 | 0.676 | 0.462 | 0.564 | 0.615 | 0.422 | 0.527
13 | NCI-H2405 | 0.926 | 1.01 | 1.06 | 0.15 | 0.202 | – | 0.814 | 0.828 | 0.757 | 0.267 | 1.04 | 0.914 | 1.01 | 0.934 | 0.702 | 0.811 | 0.761 | 0.697 | 0.706
14 | NCI-H3122 | 1.04 | 0.996 | 1.05 | 0.855 | 0.814 | 0.371 | 0.428 | 0.418 | 0.38 | 0.132 | 1.01 | 0.985 | 0.993 | 0.947 | 0.404 | 0.34 | 0.457 | 0.154 | 0.181
15 | PC-3 [JPC-3] | 0.864 | 0.767 | 0.581 | 0.245 | 0.147 | 0.859 | 0.926 | 0.901 | 0.866 | 0.374 | 0.991 | 0.692 | 0.852 | 0.846 | 0.834 | 0.878 | 0.934 | 0.855 | 0.836
16 | PC-14 | 0.888 | 0.963 | 0.494 | 0.0957 | 0.0938 | 0.575 | 0.677 | 0.69 | 0.545 | 0.0359 | 1.04 | 0.892 | 0.78 | 0.682 | 0.545 | 0.625 | 0.624 | 0.602 | 0.593
